From ChEMBL document CHEMBL3751775, “Identification of B. anthracis N(5)-carboxyaminoimidazole ribonucleotide mutase (PurE) active site binding compounds via fragment library screening” (Bioorg Med Chem, 2016)
pKd: −log10 of the molar value.

Experiments:
[1] = Binding affinity to Bacillus anthracis PurE by Surface Plasmon Resonance analysis
[2] = Binding affinity to Bacillus anthracis PurE by intrinsic tryptophan fluorescence analysis; details: for pKd: read-out: Kd
Bacillus anthracis [3] = test: Inhibition of Bacillus anthracis PurE using CAIR as substrate at 100 uM preincubated for 5 mins followed by substrate addition by UV spectroscopic analysis
[4] = Binding affinity to Escherichia coli PurE by Surface Plasmon Resonance analysis
[5] = Aqueous solubility of the compound; type: physicochemical
Bacillus anthracis [6] = test: Inhibition of Bacillus anthracis PurE using CAIR as substrate at 25 uM preincubated for 5 mins followed by substrate addition by UV spectroscopic analysis

| Structure (SMILES) | pKd [1] | pKd [2] | also measured |
| --- | --- | --- | --- |
| O=C(O)c1cc2cc(F)ccc2[nH]1 [5-FLUOROINDOLE-2-CARBOXYLIC ACID] | 3.63 | – | – |
| CCOc1cc(CO)c(Br)cc1OC | 3.80 | 3.44 | – |
| Nc1cncn1[C@@H]1O[C@H](COP(=O)(O)O)[C@@H](O)[C@H]1O | – | 3.55 | – |
| Cc1ccc(C(=S)c2nnns2)cc1 | 4.22 | 4.09 | inhibition (Bacillus anthracis [3]): 36% |
| Nc1nn2c(-c3ccccc3)nnc2s1 | 3.92 | 3.22 | – |
| Cc1cnc(NC(=O)c2ccoc2C)s1 | 4.69 | 4.40 | – |
| Nc1c([N+](=O)[O-])ncn1[C@@H]1O[C@H](COP(=O)(O)O)[C@@H](O)[C@H]1O | – | – | pKd [4]: 7.07 |
| Oc1cc(Cl)c(Cl)cc1O | 3.99 | 3.74 | – |
| O=C(O)c1ccc(O)c(O)c1 [PROTOCATECHUIC ACID] | 3.56 | – | solubility [5]: > 1200 µM |
| COc1ccc2ncc(N)cc2c1 | 3.58 | 4.13 | – |
| CCc1ccc(C(=O)Nc2nncs2)s1 | 4.87 | 4.70 | inhibition (Bacillus anthracis [6]): 49% |
| NCc1cc(-c2ccccc2Cl)on1 | 3.35 | 3.40 | – |
| Cc1ccc(C(N)c2ccncc2)cc1 (stereo not drawn) | 3.15 | – | Kd [2]: Not Active |
| COc1ccc(-c2cc(N)[nH]n2)cc1 | 3.83 | 3.67 | – |
| Cc1cc(C(=O)Nc2cccc(F)c2)no1 | 4.10 | 4.02 | – |
| CCOc1ccccc1C(=S)N1CCOCC1 | 4.14 | 4.21 | – |
| NC(=S)N1CCc2ccccc21 | 4.45 | 4.45 | – |
